# Experimental data published in PMC7038631 (Alzheimer's & dementia : the journal of the Alzheimer's …, 2019).
# “Also recorded” adds a separate entry of the source.
# What was measured:
# [1] = molecular target: tau preformed fibrils (PFF) (Homo sapiens, UniProt P10636); experiment: ThT signal of tau preformed fibrils; format: biochemical; conditions: DTT 5 mM
# [2] = molecular target: purified recombinant full-length 2N4R wild-type (WT) tau (Homo sapiens, UniProt P10636); experiment: Surface plasmon resonance binding to immobilized WT tau; conditions: read-out: Kd, binding to purified WT tau protein (SPR); steady-state, 25 °C, 1 nM to 5 μM
# Sequence of purified recombinant full-length 2N4R wild-type (WT) tau (P10636 1-441 isoform P10636-8): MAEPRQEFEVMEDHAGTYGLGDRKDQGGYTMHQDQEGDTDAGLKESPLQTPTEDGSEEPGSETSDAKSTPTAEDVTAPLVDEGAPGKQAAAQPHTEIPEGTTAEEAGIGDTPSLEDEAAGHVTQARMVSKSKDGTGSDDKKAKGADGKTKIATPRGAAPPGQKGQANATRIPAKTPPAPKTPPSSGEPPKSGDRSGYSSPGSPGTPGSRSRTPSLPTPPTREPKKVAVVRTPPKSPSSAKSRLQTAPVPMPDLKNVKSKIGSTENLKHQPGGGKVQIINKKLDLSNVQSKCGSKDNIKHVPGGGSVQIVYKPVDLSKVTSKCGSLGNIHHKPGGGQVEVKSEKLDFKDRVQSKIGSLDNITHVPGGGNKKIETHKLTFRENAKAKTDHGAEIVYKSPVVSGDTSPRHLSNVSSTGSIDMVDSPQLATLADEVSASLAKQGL
# purified WT tau proteins = purified WT tau proteins (Homo sapiens, UniProt P10636); experiment: Heparin induced thioflavin-T; format: biochemical
# Sequence of purified WT tau proteins (P10636 1-441 isoform P10636-8): as above
# WT 2N4R tau monomer = experiment: Single-molecule FRET; format: biochemical; conditions: 5 μM, vs buffer or DMSO
# [3] = FRET control cells expressing free fluorophores; format: cell-based, human
# [4] = tested on: untransfected SH-SY5Y cells; conditions: MK-886 0.5, 1 or 2 μM
# Sequence of tau preformed fibrils (PFF) (P10636 1-441 isoform P10636-8): as above
smiles,measurement,setting,value
O=c1c(O)c(-c2ccc(O)c(O)c2)oc2c(O)c(O)cc(O)c12 [gossypetin],Effect on ThT signal from tau PFF,[1],significant decrease
CC(C)c1ccc2c(c1)c(SC(C)(C)C)c(CC(C)(C)C(=O)O)n2Cc1ccc(Cl)cc1 [MK-886],Kd,[2],178 nM
same,Direct effect on ThT fluorescence,purified WT tau proteins,did not have a direct effect
same,Effect on lag phase of tau β-sheet fibril formation (ThT),"purified WT tau proteins; heparin 0.4 mg/ml, MK-886 0.5 and 5 μM",reduces the lag phase; also recorded: shortens the lag phase
same,Nucleation of tau fibril formation without heparin (ThT),purified WT tau proteins; no heparin,unable to nucleate tau fibrillization; also recorded: did not act to nucleate
same,"smFRET change, N-terminal domain labeled tau construct",WT 2N4R tau monomer,minor decrease in FRET
same,"smFRET change, PRR/MTBR labeled tau construct",WT 2N4R tau monomer,substantial increase in FRET
same,Action on cytosolic fluorophores (control FRET),[3],not acting on the cytosolic fluorophores
same,Effect on ThT signal from tau PFF,[1],did not reduce
same,Rescue of cell cytotoxicity induced by UC-112,[4]; UC-112 1 μM,did not rescue
same,Rescue of cell cytotoxicity induced by YM-155,[4]; YM-155 1 μM,did not rescue
